Experiments:
Factor VII = assay: In vivo mouse Factor VII silencing (siRNA in liposome formulations with the cationic lipid); parameters: species or system C57BL/6 mice; conditions: C57BL6 mice; for ability to knockdown Factor VII in mouse plasma (FIGS. 1 and 2): 0.3 mg/kg, compared to controls (MC3, NC1, ATX-547, ATX-003); for Factor VII knockdown in mouse plasma (FIGS. 3 and 4): second series with MC3, NC1, ATX-547, ATX-004, ATX-006, ATX-010, ATX-001
Procedure: Using a liver-directed in vivo screen of the liposome libraries, a series of compounds were tested that facilitate high levels of siRNA mediated gene silencing in hepatocytes, the cells comprising the liver parenchyma. Factor VII, a blood clotting factor, is a suitable target gene for assaying functional siRNA delivery to liver. Because this factor is produced specifically in hepatocytes, gene silencing indicates successful delivery to parenchyma, as opposed to delivery to the cells of the reticulo-endothelial system (e.g., Kupffer cells). Furthermore, Factor VII is a secreted protein that can be readily measured in serum, obviating the need to euthanize animals. Silencing at the mRNA level can be readily determined by measuring levels of protein. This is because the protein's short half-life (2-5 hour). C57BL/6 mice (Charles River Labs) received either saline or siRNA in liposome formulations via tail vein injection at a volume of 0.006 ml/g. At 48 h after administration, animals were anesthetized by isofluorane inhalation and blood was collected into serum separator tubes by retroorbital bleed. Serum levels of Factor VII protein were determined in samples using a chromogenic assay (Biophen FVII, Aniara Corporation) according to manufacturers' protocols. A standard curve was generated using serum collected from saline-treated animals.
Compositions with siRNA directed to […] were formulated with ATX-001, ATX-002, ATX-003, and ATX-547, and comparator samples NC1 and MC3 (Alnylam). These were injected into animals at 0.3 mg/kg and at 1 mg/kg. The siRNA encapsulated by MC3 (0.3 mg/kg), NC1 (0.3 mg/kg), ATX-547 (0.3 mg/kg), ATX-001 (0.3 and 1.0 mg/kg), ATX-002 (0.3 and 1.0 mg/kg), and ATX-003 (0.3 and 1.0 mg/kg) was measured for the ability to knockdown Factor VII in mouse plasma following administration of the siRNA formulation to C57BL6 mice.
The siRNA encapsulated MC3 (0.3 and 1.5 mg/kg), NC1 (0.3 mg/kg), ATX-547 (0.1 and 0.3 mg/kg), ATX-004 (0.3), ATX-006 (0.3 and 1.0 mg/kg), ATX-010 (0.3 mg/kg), and ATX-001 (0.3 and 1.5 mg/kg), was measured for Factor VII knockdown in mouse plasma following administration of the siRNA formulation to C57BL6 mice. […] The knockdown activity of the exemplary compounds is shown for 0.3 mg/kg or at 0.05 mg/kg for ATX-018, ATX-019, and ATX-020 (Table 1).

[1] = pKa of the cationic lipid (Table 1); type: physicochemical

Row | pKa [1] | Compound | ability to knockdown Factor VII in mouse plasma (FIGS. 1 and 2) (Factor VII) | Factor VII knockdown in mouse plasma (FIGS. 3 and 4) (Factor VII)
1 | 8.9 | CCCCCC/C=C\COC(=O)CCCCCCCN(CCCCCCCC(=O)OC/C=C\CCCCCC)C(=O)CSCCN(C)C [ATX-001] | most effective | most effective
2 | 9.5 | CCCCCC/C=C\COC(=O)CCCCCCCN(CCCCCCCC(=O)OC/C=C\CCCCCC)C(=O)CSCCCN(C)CC [ATX-007] |  | 
3 | 10.3 | CCCCCC/C=C\COC(=O)CCCCCCCN(CCCCCCCC(=O)OC/C=C\CCCCCC)C(=O)CSCCCN(CC)CC [ATX-008] |  | 
4 | 8.8 | CCCCCC/C=C\COC(=O)CCCCCCCN(CCCCCCCC(=O)OC/C=C\CCCCCC)C(=O)SCCN(C)CC [ATX-009] |  | 
5 | 9.6 | CCCCCC/C=C\COC(=O)CCCCCCCN(CCCCCCCC(=O)OC/C=C\CCCCCC)C(=O)SCCN(CC)CC [ATX-010] |  | most effective
6 | 10.2 | CCCCCC/C=C\COC(=O)CCCCCCCN(CCCCCCCC(=O)OC/C=C\CCCCCC)C(=O)SCCCN(CC)CC [ATX-012] |  | 

Continued, compound first:

Row | Compound | pKa [1] | ability to knockdown Factor VII in mouse plasma (FIGS. 1 and 2) (Factor VII) | Factor VII knockdown in mouse plasma (FIGS. 3 and 4) (Factor VII)
7 | CCCCCC/C=C\COC(=O)CCCCCCCN(CCCCCCCC(=O)OC/C=C\CCCCCC)C(=O)SCCN(C)C [ATX-002] | 8.7 | most effective | 
8 | CCCCCC/C=C\COC(=O)CCCCCCCN(CCCCCCCC(=O)OC/C=C\CCCCCC)C(=O)SCCCN(C)C [ATX-003] | 9.3 |  | 
9 | CCCCCC/C=C\COC(=O)CCCCCCCN(CCCCCCCC(=O)OC/C=C\CCCCCC)C(=O)CSCCCN(C)C [ATX-004] | 9.4 |  | 
10 | CCCCCC/C=C\COC(=O)CCCCCCCN(CCCCCCCC(=O)OC/C=C\CCCCCC)C(=O)CSCCN(C)CC [ATX-005] | 9 |  | 
11 | CCCCCC/C=C\COC(=O)CCCCCCCN(CCCCCCCC(=O)OC/C=C\CCCCCC)C(=O)CSCCN(CC)CC [ATX-006] | 9.8 |  | 
12 | CCCCCC/C=C\COC(=O)CCCCCCCN(CCCCCCCC(=O)OC/C=C\CCCCCC)C(=O)SCCCN(C)CC [ATX-011] | 9.4 |  | 
